Assay results taken from US5216142A, “Anti-virals” (Efamol Holdings plc, priority 1989, dated 1993).
“Also recorded” adds a separate entry of the source.

Tested on: herpes simplex virus Type I (HSV I)
Assay: Inhibition of virus replication (plaque assay, BHK-21 cells)
Format: cell-based, Type 1, Troisbel strain
Conditions: not given
Procedure: 1. Mono-layers of baby hamster kidney cells (BHK-21) are prepared in Petri dishes containing ETC medium (Eagle's minimal essential medium +10% tryptose phosphate broth +10% new born calf serum).
2. After incubation the medium is poured off to leave the layer of cells attached to the Petri dish. A solution containing virus, specifically herpes simplex virus Type I (HSV I) for example, in ETC medium is then added to the dish and incubated with intermittent rocking for one hour to allow the virus to adsorb to the cells of the mono-layer. Unadsorbed virus is then removed by pouring off the virus-containing medium and washing twice with new sterile medium. Then new medium is added to each Petri dish. At this stage various concentrations of drug can be added to the medium.
3. […] First the dishes are frozen to -70° C. and thawed to disrupt the mono-layer and break up the cells. Then the medium and the disrupted cells are transferred to bijou bottles and sonicated to break down the cells completely and to release all the virus particles the cells contain. The sonicated medium is then diluted with fresh sterile ETC medium to give concentrations of the original Petri dish fluid of 10^-2, 10^-4, 10^-6 and 10^-8.
4. The number of virus particles (plaque forming units) in the dilutions is then assayed. A standard number of BHK cells (usually 8×10^6) is added to 2 ml of the diluted solutions and incubated for one hour, with cautious, gentle shaking, and 8 ml of Eagle's minimal essential medium +2% new born calf serum + carboxymethyl cellulose is then added to the cell suspension. This medium has gelling properties which prevent spreading of the virus through the medium and which encourage the formation of discrete plaques in cell mono-layers. The medium from each dilution is then dispensed into Petri dishes and incubated for two to three days.
5. The number of plaques formed is then counted and the amount of active virus expressed as the number of plaque forming units (pfus) as follows. The medium is poured off and the cell mono-layer is fixed using 10% formol saline and stained with dilute carbol fuchsin. The number of plaques in each Petri dish is counted. Based on the dilutions, the number of plaque forming virus particles in the original solutions is calculated.
In the Table, the figures are the concentration of viral particles in pfu/ml present in the cells + medium at the end of the replication stage (3).
In the case of `CCCCC/C=C\C/C=C\C/C=C\CCCCCO` [GLA alcohol, reference compound], the “Inhibition of herpes virus replication (in words)” value is reported as “no effect at all”. With `CCCCC/C=C\C/C=C\C/C=C\CCCCC(=O)Nc1nc2c(ncn2COCCOC(=O)CCCC/C=C\C/C=C\C/C=C\CCCCC)c(=O)[nH]1` [AK 10, digamma-linolenyl acyclovir] the “Inhibition of herpes virus replication (in words)” value was “very effective”.

Same assay, conditions: Human alphaherpesvirus 1, BHK-21, 24 h; 0.1 mg/l; read-out: Inhibition of viral replication (log10 reduction in virus titre)
Work on `CCCCC/C=C\C/C=C\C/C=C\CCCCC(=O)Nc1nc2c(ncn2COCCO)c(=O)[nH]1` [AK 12] yielded a log reduction at 0.1 µg/mL of 1.9. With `CCCCC/C=C\C/C=C\C/C=C\CCCCC(=O)Nc1nc2c(ncn2COCCOC(=O)CCCC/C=C\C/C=C\C/C=C\CCCCC)c(=O)[nH]1` [AK 10, digamma-linolenyl acyclovir] the log reduction at 0.1 µg/mL was 0.45.

Same assay, conditions: Human alphaherpesvirus 1, BHK-21, 24 h; 0.5 mg/l; read-out: Inhibition of viral replication (log10 reduction in virus titre)
`CCCCC/C=C\C/C=C\C/C=C\CCCCC(=O)Nc1nc2c(ncn2COCCOC(=O)CCCC/C=C\C/C=C\C/C=C\CCCCC)c(=O)[nH]1` [AK 10, digamma-linolenyl acyclovir] gave a log reduction at 0.5 µg/mL of 0.86.

Same assay, conditions: Human alphaherpesvirus 1, BHK-21, 24 h; 1 mg/l; read-out: Inhibition of viral replication (log10 reduction in virus titre)
Compound `CCCCC/C=C\C/C=C\C/C=C\CCCCC(=O)Nc1nc2c(ncn2COCCO)c(=O)[nH]1` [AK 12] has a log reduction at 1 µg/mL of 3.9. For `CCCCC/C=C\C/C=C\C/C=C\CCCCC(=O)Nc1nc2c(ncn2COCCOC(=O)CCCC/C=C\C/C=C\C/C=C\CCCCC)c(=O)[nH]1` [AK 10, digamma-linolenyl acyclovir], the log reduction at 1 µg/mL was 1.13.

Same assay, conditions: Human alphaherpesvirus 1, BHK-21, 24 h; 1 mg/liter solution; read-out: Reduction of virus replication, log
`CCCCC/C=C\C/C=C\C/C=C\CCCCC(=O)Nc1nc2c(ncn2COCCOC(=O)CCCC/C=C\C/C=C\C/C=C\CCCCC)c(=O)[nH]1` [AK 10, digamma-linolenyl acyclovir] showed a log reduction at 1 µg/mL of 1.

Same assay, conditions: Human alphaherpesvirus 1, BHK-21, 24 h; 1 mg/liter solution; read-out: Reduction of virus replication, percent
Compound `CCCCC/C=C\C/C=C\C/C=C\CCCCC(=O)Nc1nc2c(ncn2COCCOC(=O)CCCC/C=C\C/C=C\C/C=C\CCCCC)c(=O)[nH]1` [AK 10, digamma-linolenyl acyclovir] has an inhibition at 1 µg/mL of 90%.

Tested on: HTLV-IIIB
Assay: Anti-HIV activity assay, HTLV-IIIB (MT-4 cells, MTT method)
Format: cell-based
Conditions: CD50/ED50, HTLV-IIIB
Procedure: (§1) Results in relation to HIV virus were obtained by the method of Pauwels et al, Journal of Virological Methods 20, 309 to 321 (1988), as follows:
(§2) MT-4 cells (2.5×10^4 /well) were infected with HIV (100 CCID50) and incubated in the presence of varying concentrations of the test compounds (added immediately after virus infection). After five days incubation at 37° C. in a CO2 incubator, the number of viable cells was assessed by the MTT (tetrazolium) method. Anti-viral activity and cytotoxicity of the compounds are expressed as ED50 (50% effective dose) and CD50 (50% cytotoxic dose), respectively. SI (selectivity index=CD50 /ED50.
(§3) These are given in Table 8 and Table 9 below in relation to HTLV-IIIB and LAV-2ROD viruses.
In the case of `CCCCC/C=C\C/C=C\C/C=C\CCCCC(=O)Nc1nc2c(ncn2COCCOC(=O)CCCC/C=C\C/C=C\C/C=C\CCCCC)c(=O)[nH]1` [AK 10, digamma-linolenyl acyclovir], the “Selectivity index (SI)” value is reported as under 1.

Same assay, conditions: Human immunodeficiency virus 1, MT4, 120 h; MT-4 cells, five days, HTLV-IIIB; read-out: ED50 (50% effective dose)
In the case of `CCCCC/C=C\C/C=C\C/C=C\CCCCC(=O)Nc1nc2c(ncn2COCCOC(=O)CCCC/C=C\C/C=C\C/C=C\CCCCC)c(=O)[nH]1` [AK 10, digamma-linolenyl acyclovir], the EC50 is reported as over 8 µg/mL.

Tested on: not given
Assay: not given
Conditions: not given
For `CCCCC/C=C\C/C=C\C/C=C\CCCCC(=O)Nc1nc2c(ncn2COCCOC(=O)CCCC/C=C\C/C=C\C/C=C\CCCCC)c(=O)[nH]1` [AK 10, digamma-linolenyl acyclovir], the “% in chloroform phase (partition co-efficients, water/chloroform)” value was over 99%.

Tested on: herpes simplex virus Type I
Assay: Inactivation of virus (30 minutes incubation, plaque assay)
Format: cell-based, Type 1, Troisbel strain
Conditions: not given
Procedure: 1. A virus solution containing 2×10^5 pfu/ml is prepared in phosphate buffered saline (Dulbecco's A).
2. The compound to be tested is made up in Dulbecco's medium A in a suitable range of dilutions.
3. Equal volumes of the virus and drug solution are mixed together. Control solutions without drug are also used.
4. The virus and drug are incubated for an appropriate period of time, in this example, thirty minutes.
5. The numbers of active viral particles in the solution are assayed as in items 4 and 5 under A.
The results are shown below (Table 6). In the Table, the figures are concentrations of viral particles present after incubation of the virus for 30 minutes with solutions of the drugs.
In the case of `CCCCC/C=C\C/C=C\C/C=C\CCCCCO` [GLA alcohol, reference compound], the “Virucidal activity / inactivation of herpes virus (in words)” value (“Virucidal activity / inactivation” below) is reported as “able to inactivate the herpes simplex virus”. With `CCCCC/C=C\C/C=C\C/C=C\CCCCC(=O)Nc1nc2c(ncn2COCCO)c(=O)[nH]1` [AK 12] the “Virucidal activity / inactivation” value was “virucidal”. For `CCCCC/C=C\C/C=C\C/C=C\CCCCC(=O)Nc1nc2c(ncn2COCCOC(=O)CCCC/C=C\C/C=C\C/C=C\CCCCC)c(=O)[nH]1` [AK 10, digamma-linolenyl acyclovir], the “Virucidal activity / inactivation” value was “virucidal; also recorded: very effective”.

Same assay, conditions: 5 μg/ml; 30 minutes; control 5.4 × 10^4 (GLA-alcohol), 4.5 × 10^4 (GLA-AZT)
In the case of `CCCCC/C=C\C/C=C\C/C=C\CCCCCO` [GLA alcohol, reference compound], the “Virus titre (inactivation of virus)” value is reported as 3.0 × 10^3.

Same assay, conditions: 10 μg/ml; 30 minutes; control 5.4 × 10^4 (GLA-alcohol), 4.5 × 10^4 (GLA-AZT)
In the case of `CCCCC/C=C\C/C=C\C/C=C\CCCCCO` [GLA alcohol, reference compound], the “Virus titre (inactivation of virus)” value is reported as 2.2 × 10^2.

Same assay, conditions: 25 μg/ml; 30 minutes; control 5.4 × 10^4 (GLA-alcohol), 4.5 × 10^4 (GLA-AZT)
For `CCCCC/C=C\C/C=C\C/C=C\CCCCCO` [GLA alcohol, reference compound], the “Virus titre (inactivation of virus)” value was < 1.0 × 10^2.

Same assay, conditions: Human alphaherpesvirus 1, 0.5 h; 1 mg/l; read-out: Inactivation of virus (log10 reduction in virus titre)
With `CCCCC/C=C\C/C=C\C/C=C\CCCCC(=O)Nc1nc2c(ncn2COCCO)c(=O)[nH]1` [AK 12] the log reduction at 1 µg/mL was 0.6. Work on `CCCCC/C=C\C/C=C\C/C=C\CCCCC(=O)Nc1nc2c(ncn2COCCOC(=O)CCCC/C=C\C/C=C\C/C=C\CCCCC)c(=O)[nH]1` [AK 10, digamma-linolenyl acyclovir] yielded a log reduction at 1 µg/mL of 0.94.

Same assay, conditions: Human alphaherpesvirus 1, 0.5 h; 1 mg/liter solution; read-out: Inactivation of virus, log
With `CCCCC/C=C\C/C=C\C/C=C\CCCCC(=O)Nc1nc2c(ncn2COCCOC(=O)CCCC/C=C\C/C=C\C/C=C\CCCCC)c(=O)[nH]1` [AK 10, digamma-linolenyl acyclovir] the log reduction at 1 µg/mL was 1.

Same assay, conditions: Human alphaherpesvirus 1, 0.5 h; 1 mg/liter solution; read-out: Inactivation of virus, percent
Work on `CCCCC/C=C\C/C=C\C/C=C\CCCCC(=O)Nc1nc2c(ncn2COCCOC(=O)CCCC/C=C\C/C=C\C/C=C\CCCCC)c(=O)[nH]1` [AK 10, digamma-linolenyl acyclovir] yielded a killing at 1 µg/mL of 90%.

Same assay, conditions: Human alphaherpesvirus 1, 0.5 h; 5 mg/l; read-out: Inactivation of virus (log10 reduction in virus titre)
`CCCCC/C=C\C/C=C\C/C=C\CCCCC(=O)Nc1nc2c(ncn2COCCO)c(=O)[nH]1` [AK 12] gave a log reduction at 5 µg/mL of 1.4. Compound `CCCCC/C=C\C/C=C\C/C=C\CCCCC(=O)Nc1nc2c(ncn2COCCOC(=O)CCCC/C=C\C/C=C\C/C=C\CCCCC)c(=O)[nH]1` [AK 10, digamma-linolenyl acyclovir] has a log reduction at 5 µg/mL of 1.54.

Tested on: LAV-2ROD
Assay: Anti-HIV activity assay, LAV-2ROD (MT-4 cells, MTT method)
Format: cell-based
Conditions: CD50/ED50, LAV-2ROD
Procedure: as §1, §2, §3
For `CCCCC/C=C\C/C=C\C/C=C\CCCCC(=O)Nc1nc2c(ncn2COCCOC(=O)CCCC/C=C\C/C=C\C/C=C\CCCCC)c(=O)[nH]1` [AK 10, digamma-linolenyl acyclovir], the “Selectivity index (SI)” value was under 1.

Same assay, conditions: MT4, 120 h; MT-4 cells, five days, LAV-2ROD; read-out: ED50 (50% effective dose)
`CCCCC/C=C\C/C=C\C/C=C\CCCCC(=O)Nc1nc2c(ncn2COCCOC(=O)CCCC/C=C\C/C=C\C/C=C\CCCCC)c(=O)[nH]1` [AK 10, digamma-linolenyl acyclovir] gave an EC50 of over 40 µg/mL.
